Target: T1, JAK3: Recombinant human kinase domain (Homo sapiens, UniProt P52333)
T1 construct: JAK3: Recombinant human kinase domain from Millipore (Cat #14-629) or prepared; purchased Millipore 14-629
Assay: Determination of IC50 of Janus Kinase (JAK) inhibition, radioactive end-point 33P-ATP assay, JAK3
Format: biochemical
Settings: ATP 1.5 uM, peptide 50 uM, 20 minutes, read-out: JAK3-INHIB-DR/v1~NO ADDITIVE~Enzyme_Conc = 100

T1 sequence (P52333 822-1111 limits assumed): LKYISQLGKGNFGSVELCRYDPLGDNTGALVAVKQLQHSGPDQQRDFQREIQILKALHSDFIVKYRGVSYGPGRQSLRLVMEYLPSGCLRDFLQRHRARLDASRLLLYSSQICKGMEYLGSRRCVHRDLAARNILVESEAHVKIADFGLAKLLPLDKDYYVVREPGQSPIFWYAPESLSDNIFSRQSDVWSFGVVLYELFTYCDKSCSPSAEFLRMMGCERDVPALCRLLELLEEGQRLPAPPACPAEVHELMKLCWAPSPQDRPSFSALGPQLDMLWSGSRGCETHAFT

`C[C@H](CN1CC(C#N)C1)NC(=O)c1c[nH]c2ncc(-c3nn(C)c4cc(Cl)ccc34)nc12` [Example I-126, 2-(6-Chloro-1-methyl-1H-indazol-3-yl)-5H-pyrrolo[2,3-b]pyrazine-7-carboxylic acid [(R)-2-(3-cyano-azetidin-1-yl)-1-methyl-ethyl]-amide] was tested, and the IC50 was 18.3 nM.

With `[2H]C([2H])([2H])OC[C@H](C)NC(=O)c1c[nH]c2ncc(-c3nn(C)c4cc(F)ccc34)nc12` [Example I-182, 2-(6-Fluoro-1-methyl-1H-indazol-3-yl)-5H-pyrrolo[2,3-b]pyrazine-7-carboxylic acid ((S)-1-methyl-2-trideuteromethoxy-ethyl)-amide] the IC50 was 1.07 nM.

For `CCNC(=O)c1c[nH]c2ncc(-c3nn(C)c4cc(Cl)ccc34)nc12` [Example I-109, 2-(6-Chloro-1-methyl-1H-indazol-3-yl)-5H-pyrrolo[2,3-b]pyrazine-7-carboxylic acid ethylamide], the IC50 was 44.3 nM.

`COC[C@@H](NC(=O)c1c[nH]c2ncc(-c3nn(C)c4cc(Cl)ccc34)nc12)C(=O)N1CC(C#N)C1` [Example I-175, 2-(6-Chloro-1-methyl-1H-indazol-3-yl)-5H-pyrrolo[2,3-b]pyrazine-7-carboxylic acid [(R)-2-(3-cyano-azetidin-1-yl)-1-methoxymethyl-2-oxo-ethyl]-amide] gave an IC50 of 0.54 nM.

`CCCn1nc(-c2cnc3[nH]cc(C(=O)N[C@H](C)C(=O)N4CC(C#N)C4)c3n2)c2ccc(Cl)cc21` [Example I-92, 2-(6-Chloro-1-propyl-1H-indazol-3-yl)-5H-pyrrolo[2,3-b]pyrazine-7-carboxylic acid [(R)-2-(3-cyano-azetidin-1-yl)-1-methyl-2-oxo-ethyl]-amide] showed an IC50 of 2.08 nM.

`COC[C@H](C)NC(=O)c1c[nH]c2ncc(-c3nn(C)c4cc(Cl)cc(F)c34)nc12` [Example I-170, 2-(6-Chloro-4-fluoro-1-methyl-1H-indazol-3-yl)-5H-pyrrolo[2,3-b]pyrazine-7-carboxylic acid ((S)-2-methoxy-1-methyl-ethyl)-amide] was tested, and the IC50 was 7.12 nM.

With `CO[C@@H](C)CNC(=O)c1c[nH]c2ncc(-c3nn(C)c4cc(F)ccc34)nc12` [Example I-135, 2-(6-Fluoro-1-methyl-1H-indazol-3-yl)-5H-pyrrolo[2,3-b]pyrazine-7-carboxylic acid ((S)-2-methoxy-propyl)-amide] the IC50 was 6.9 nM.

`CCOC[C@H](C)NC(=O)c1c[nH]c2ncc(-c3nn(C)c4cc(Cl)ccc34)nc12` [Example I-171, 2-(6-Chloro-1-methyl-1H-indazol-3-yl)-5H-pyrrolo[2,3-b]pyrazine-7-carboxylic acid ((S)-2-ethoxy-1-methyl-ethyl)-amide] showed an IC50 of 5.78 nM.

For `Cn1nc(-c2cnc3[nH]cc(C(=O)NC(C)(C)C)c3n2)c2ccc(Cl)cc21` [Example I-305, 2-(6-Chloro-1-methyl-1H-indazol-3-yl)-5H-pyrrolo[2,3-b]pyrazine-7-carboxylic acid tert-butylamide], the IC50 was 444 nM.

In the case of `C[C@@H](NC(=O)c1c[nH]c2ncc(-c3nc(CO)n4cc(F)ccc34)nc12)C(=O)N1CC(C#N)C1` [Example I-35, 2-(6-Fluoro-3-hydroxymethyl-imidazo[1,5-a]pyridin-1-yl)-5H-pyrrolo[2,3-b]pyradine-7-carboxylic acid [(R)-2-(3-cyano-azetidin-1-yl)-1-methyl-2-oxo-ethyl]-amide], the IC50 is reported as 0.33 nM.

`Cn1nc(-c2cnc3[nH]cc(C(=O)N[C@@H](C(=O)N4CCC(C#N)CC4)C4CC4)c3n2)c2cc(Cl)ccc21` [Example I-3, 2-(5-Chloro-1-methyl-1H-indazol-3-yl)-5H-pyrrolo[2,3-b]pyrazine-7-carboxylic acid [(R)-2-(4-cyano-piperidin-1-yl)-1-cyclopropyl-2-oxo-ethyl]-amide] showed an IC50 of 1.06 nM.

`Cn1nc(-c2cnc3[nH]cc(C(=O)NC4(c5ccc(Br)cc5)CCC4)c3n2)c2ccc(F)cc21` [Example I-210, 2-(6-Fluoro-1-methyl-1H-indazol-3-yl)-5H-pyrrolo[2,3-b]pyrazine-7-carboxylic acid [1-(4-bromo-phenyl)-cyclobutyl]-amide] showed an IC50 of 102 nM.

In the case of `C[C@@H](NC(=O)c1c[nH]c2ncc(-c3nn(C)c4cc(Cl)ccc34)nc12)C1CC1` [Example I-16, 2-(6-Chloro-1-methyl-1H-indazol-3-yl)-5H-pyrrolo[2,3-b]pyrazine-7-carboxylic acid ((R)-1-cyclopropyl-ethyl)-amide], the IC50 is reported as 4.81 nM.

Molecule `Cc1nc(-c2cnc3[nH]cc(C(=O)N[C@H](C)C(=O)N4CC(C#N)C4)c3n2)c2ccc(F)cn12` [Example I-34, 2-(6-Fluoro-3-methyl-imidazo[1,5-a]pyridin-1-yl)-5H-pyrrolo[2,3-b]pyrazine-7-carboxylic acid [(R)-2-(3-cyano-azetidin-1-yl)-1-methyl-2-oxo-ethyl]-amide] has an IC50 of 1.27 nM.

In the case of `C[C@@H](NC(=O)c1c[nH]c2ncc(-c3nn(CCN(C)C)c4cc(Cl)ccc34)nc12)C(=O)N1CC(C#N)C1` [Example I-229, 2-[6-Chloro-1-(2-dimethylamino-ethyl)-1H-indazol-3-yl]-5H-pyrrolo[2,3-b]pyrazine-7-carboxylic acid [(R)-2-(3-cyano-azetidin-1-yl)-1-methyl-2-oxo-ethyl]-amide], the IC50 is reported as 3.34 nM.

For `C[C@@H](NC(=O)c1c[nH]c2ncc(-c3nn(C)c4cc(Cl)ccc34)nc12)C(C)(C)O` [Example I-12, 2-(6-Chloro-1-methyl-1H-indazol-3-yl)-5H-pyrrolo[2,3-b]pyrazine-7-carboxylic acid ((R)-2-hydroxy-1,2-dimethyl-propyl)-amide], the IC50 was 19.2 nM.

For `C[C@@H](NC(=O)c1c[nH]c2ncc(-c3nn(CC(=O)N4CCOCC4)c4cc(Cl)ccc34)nc12)C(=O)N1CC(C#N)C1` [Example I-228, 2-[6-Chloro-1-(2-morpholin-4-yl-2-oxo-ethyl)-1H-indazol-3-yl]-5H-pyrrolo[2,3-b]pyrazine-7-carboxylic acid [(R)-2-(3-cyano-azetidin-1-yl)-1-methyl-2-oxo-ethyl]-amide], the IC50 was 2.11 nM.

`C[C@H](NC(=O)c1c[nH]c2ncc(-c3nn(C)c4cc(Cl)cc(F)c34)nc12)C1CC1` [Example I-141, 2-(6-Chloro-4-fluoro-1-methyl-1H-indazol-3-yl)-5H-pyrrolo[2,3-b]pyrazine-7-carboxylic acid ((S)-1-cyclopropyl-ethyl)-amide] showed an IC50 of 3.77 nM.

`C[C@@H](NC(=O)c1c[nH]c2ncc(-c3nn(C)c4cc(F)ccc34)nc12)[C@@H]1CCCO1` [Example I-63, 2-(6-Fluoro-1-methyl-1H-indazol-3-yl)-5H-pyrrolo[2,3-b]pyrazine-7-carboxylic acid [(R)-(S)-1-(tetrahydro-furan-2-yl)-ethyl]-amide] showed an IC50 of 6.67 nM.

`C[C@@H](NC(=O)c1c[nH]c2ncc(-c3nn(C)c4cc(Cl)ccc34)nc12)[C@H]1C[C@H]1C#N` (single isomer, unassigned) [Example I-207] gave an IC50 of 5.45 nM.

With `C[C@@H](NC(=O)c1c[nH]c2ncc(-c3nn(C)c4cc(F)ccc34)nc12)C1(C#N)CCCC1` [Example I-100, 2-(6-Fluoro-1-methyl-1H-indazol-3-yl)-5H-pyrrolo[2,3-b]pyrazine-7-carboxylic acid [(R)-1-(1-cyano-cyclopentyl)-ethyl]-amide] the IC50 was 156 nM.

In the case of `Cn1nc(-c2cnc3[nH]cc(C(=O)N[C@@H]4CCN(CC#N)C4)c3n2)c2ccc(F)cc21` [Example I-214, 2-(6-Fluoro-1-methyl-1H-indazol-3-yl)-5H-pyrrolo[2,3-b]pyrazine-7-carboxylic acid ((R)-1-cyanomethyl-pyrrolidin-3-yl)-amide], the IC50 is reported as 27.3 nM.

With `C[C@@H](NC(=O)c1c[nH]c2ncc(-c3nn(C)c4cc(F)ccc34)nc12)c1nc(CC#N)co1` [Example I-62, 2-(6-Fluoro-1-methyl-1H-indazol-3-yl)-5H-pyrrolo[2,3-b]pyrazine-7-carboxylic acid [(R)-1-(4-cyanomethyl-oxazol-2-yl)-ethyl]-amide] the IC50 was 15.1 nM.

With `Cn1nc(-c2cnc3[nH]cc(C(=O)NC(C)(C)CO)c3n2)c2ccc(F)cc21` [Example I-363, 2-(6-Fluoro-1-methyl-1H-indazol-3-yl)-5H-pyrrolo[2,3-b]pyrazine-7-carboxylic acid (2-hydroxy-1,1-dimethyl-ethyl)-amide] the IC50 was > 1000 nM.

`N#CC1CCN(C(=O)[C@H](NC(=O)c2c[nH]c3ncc(-n4ncc5cc(Cl)c(Cl)cc54)nc23)C2CC2)CC1` [Example I-68, 2-(5,6-Dichloro-indazol-1-yl)-5H-pyrrolo[2,3-b]pyrazine-7-carboxylic acid [(R)-2-(4-cyano-piperidin-1-yl)-1-cyclopropyl-2-oxo-ethyl]-amide] showed an IC50 of 5.75 nM.

Work on `C[C@@H](NC(=O)c1c[nH]c2ncc(-c3nn(C)c4cc(F)ccc34)nc12)c1cc(C(F)(F)F)ccn1` [Example I-79, 2-(6-Fluoro-1-methyl-1H-indazol-3-yl)-5H-pyrrolo[2,3-b]pyrazine-7-carboxylic acid [(R)-1-(4-trifluoromethyl-pyridin-2-yl)-ethyl]-amide] yielded an IC50 of 15.1 nM.

For `C[C@H](CS(C)(=O)=O)NC(=O)c1c[nH]c2ncc(-c3nn(C)c4cc(Cl)ccc34)nc12` [Example I-105, 2-(6-Chloro-1-methyl-1H-indazol-3-yl)-5H-pyrrolo[2,3-b]pyrazine-7-carboxylic acid ((R)-2-methanesulfonyl-1-methyl-ethyl)-amide], the IC50 was 54.4 nM.

With `CC(C)CC(C)NC(=O)c1c[nH]c2ncc(-c3nn(C)c4cc(F)ccc34)nc12` (stereo not drawn) [Example I-187, 2-(6-Fluoro-1-methyl-1H-indazol-3-yl)-5H-pyrrolo[2,3-b]pyrazine-7-carboxylic acid (1,3-dimethyl-butyl)-amide] the IC50 was 20.4 nM.

In the case of `CC(NC(=O)c1c[nH]c2ncc(-c3nn(C)c4cc(F)ccc34)nc12)c1ccon1` (stereo not drawn) [Example I-53, 2-(6-Fluoro-1-methyl-1H-indazol-3-yl)-5H-pyrrolo[2,3-b]pyrazine-7-carboxylic acid (1-isoxazol-3-yl-ethyl)-amide], the IC50 is reported as 7.07 nM.

`C[C@@H](NC(=O)c1c[nH]c2ncc(-c3nn(C)c4cc(F)ccc34)nc12)c1cccc(Br)c1` [Example I-215, 2-(6-Fluoro-1-methyl-1H-indazol-3-yl)-5H-pyrrolo[2,3-b]pyrazine-7-carboxylic acid [(R)-1-(3-bromo-phenyl)-ethyl]-amide] gave an IC50 of 27.3 nM.

Reference: patent publication US8658646B2, “Pyrrolopyrazine kinase inhibitors” (Hoffmann-LaRoche Inc., priority 2011, dated 2014)
